Experimental data reported in patent USRE43274E1, “Fluorinated photosensitizers related to chlorins and bacteriochlorins for photodynamic therapy” (Health Research, Inc., priority 2002, dated 2012).
Blank lines part the entries; values can stand above or below the compound they belong to.

Key:
[1] = Electronic absorption spectra in dichloromethane; type: physicochemical
Procedure: The electronic absorption spectra of PHOTOFRIN® (a porphyrin analog), HPPH (a chlorin bearing a five-membered isocyclic ring) and the purpurinimide 9 (a chlorin with an expanded, six-membered fused imide ring) were measured in dichloromethane at the same molar concentrations.

RIF tumors = test: In vivo photosensitizing (PDT) efficacy, tumor response in C3H mice transplanted with RIF tumors; parameters: species or system mouse
Procedure: In brief, C3H/HEJ mice were subjected to intradermal injection with 2×10^5 RIF cells in […] HBSS w/o Ca^+2 and magnesium, into the flank and allowed to grow until they were 4-5 mm in diameter. The day before tumors were treatment size, the mice were injected with variable doses of substantially pure photosensitizers (1.0 mg/kg, 0.4 mg/kg). […] The mice (6 mice/group in two groups) were checked daily, the tumors were measured using two orthogonal measurements L and W (perpendicular to L) and the volumes were calculated using the formula V=L×W^2/2 and recorded. Mice were considered cured if there was no palpable tumor at 90 days post-PDT treatment.
In the control group, six mice were exposed to light without injecting any photosensitizer.
The in vivo photosensitizing efficacy of bacteriochlorins 16 and 18 was determined in C3H mice (5 mice/group) at variable concentration up to 1.0 μmol/Kg.

[2] = Stability of Schiff base 17 / amine 18 (in vivo reflectance spectroscopy); conditions: 17: in vivo, converted into acetyl analog 15, determined by in vivo reflectance spectroscopy
Procedure: For example, when the reaction was performed at elevated temperature, the N-fluorinated derivative 15 and the corresponding Schiff base 17 (obtained from the reaction of the 3-acetyl group with an amine) was isolated in almost equal ratio. However, at low temperature, 3-acetyl-N-substituted-bacteriopurpurinimide 15 was isolated as a major product. Bacteriochlorin 15 on reaction with sodium borohydride and then with HBr gas followed by a reaction with n-butyl alcohol produced the corresponding butyl ether derivative 16. […] However, reduction of 17 with sodium borohydride at room temperature produced stable amine 18. See Scheme 2.

[3] = dose 1.0 μmol/Kg, day 90, C3H mice

red-shift compared with PHOTOFRIN [1]: 30 nm | ε (long wavelength absorption) ([1]; same molar concentrations): 45,000 | λmax (long wavelength absorption) ([1]; same molar concentrations): 660 nm
Compound: HPPH

Compound: purpurin-18-N-butyl-3-O-{1′-3″,5″-bis(trifluoromethyl)-benzyl ether}imide [compound 12]
tumor response (RIF tumors; dose 0.4 mg/kg, light 706 nm, 135 J/cm2 at 24 hours post-injection, day 90, C3H/HeJ mice): 66%

stability [2]: stable
Compound: CCC1c2cc3[nH]c4c(c5nc(cc6[nH]c(cc(n2)C1C)c(C(C)NCc1cc(C(F)(F)F)cc(C(F)(F)F)c1)c6C)[C@@H](C)[C@@H]5CCC(=O)OC)C(=O)N(Cc1cc(C(F)(F)F)cc(C(F)(F)F)c1)C(=O)c4c3C (stereo partly shown) [compound 18]
mice tumor free (RIF tumors; [3]): 3/5 | tumor response (RIF tumors; [3]): 60%
